# Reference: PMC8776092, “A Toxoplasma gondii Oxopurine Transporter Binds Nucleobases and Nucleosides Using Different Binding Modes” (International Journal of Molecular Sciences, 2022)
# Values joined by “and” are separate entries in the source; they are usually repeats but may differ in a detail not shown here. Identical values can stand only once. Like-named read-outs stand apart in the source and are kept apart here.
# How the values were obtained:
# [1] = system: inosine transporter; details: tachyzoites; read-out: apparent Km; cited from earlier work
# [2] = target: T1, Tg244440 (Toxoplasma gondii, UniProt A0A125YNC9); experiment: [3H]-guanine uptake and its inhibition in T. brucei TbNB-KO procyclics expressing Tg244440 (clone F5); assay type: cell-based; details: for Ki: competition with 50 nM [3H]-guanine, Cheng-Prusoff; for Ki / Inhibition of [3H]-guanine transport by pyrimidines: 30 s; for ΔG^0 (Gibbs free energy of interaction): calculated from Km or Ki, ΔG0 = −RTln(Ki); for Rate of [3H]-guanine uptake, +Tg244440: clone F5; for Inhibition of [3H]-guanine transport by pyrimidines: inhibitor at 1 mM, 0.1 μM [3H]-guanine
# T1 sequence (A0A125YNC9 1-462): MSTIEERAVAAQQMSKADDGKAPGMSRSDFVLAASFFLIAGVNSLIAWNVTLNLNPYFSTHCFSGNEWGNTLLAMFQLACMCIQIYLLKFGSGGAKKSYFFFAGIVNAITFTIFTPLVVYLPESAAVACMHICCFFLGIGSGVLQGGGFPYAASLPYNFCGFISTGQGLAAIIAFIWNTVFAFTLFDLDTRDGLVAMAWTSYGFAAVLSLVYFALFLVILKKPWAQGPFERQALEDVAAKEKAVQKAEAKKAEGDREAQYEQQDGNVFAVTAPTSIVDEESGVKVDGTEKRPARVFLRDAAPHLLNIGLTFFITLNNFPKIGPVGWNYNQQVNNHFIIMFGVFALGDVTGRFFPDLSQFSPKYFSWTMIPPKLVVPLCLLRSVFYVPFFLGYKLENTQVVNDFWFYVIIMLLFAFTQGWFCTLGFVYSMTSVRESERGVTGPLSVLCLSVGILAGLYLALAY
# Description: (§1) Briefly, PCF cells of T. brucei in logarithmic growth were harvested by centrifugation at 1000× g for 10 min, washed twice in AB and then resuspended in fresh buffer at a final density of 10^8 cells/mL. […] Immediately after finishing the assay, all tubes were flash-frozen in liquid nitrogen and the cell pellets were cut into scintillation vials and lysed with a solution of 2% SDS for one hour under agitation. Then, 3 mL of scintillation fluid (Scintilogic U, Lablogic) was added to each vial and left agitating overnight on a rocking platform. The next morning, the vials were vigorously shaken to ensure optimal mixing and the scintillation was measured in a 300SL (Hidex) scintillation counter. All assays were carried out in triplicate. All experimental data such as Km, Ki and Vmax values are the average and SEM of at least three separate experiments, each in triplicate, unless otherwise indicated.
# (§2) Background scintillation was measured in vials containing no cells or radiolabeled substrate, and counts associated with extracellular radiolabel were calculated from samples where cells were briefly incubated with the same concentration of radiolabel, but in the presence of saturating concentrations of non-radiolabeled substrate before centrifugation through oil. The average of the three control replicates was subtracted from each data point.
# [3] = system: TgAT2; design: method as in PMID 12865082; details: cited from earlier work; for Km: tachyzoites
# [4] = system: TgAT1; details: cited from earlier work
# [5] = system: human adenosine kinase; design: method as in PMID 23592612, PMID 6363411, PMID 10722669, PMID 8982282; details: cited from earlier work
# [6] = target: T1, Tg244440; details: Xenopus laevis oocytes, 10 µM [3H]-adenosine; cited from earlier work
# [7] = system: hENT1; design: method as in PMID 23592612, PMID 6363411, PMID 10722669, PMID 8982282; details: cited from earlier work
# [8] = system: human adenosine deaminase; design: method as in PMID 23592612, PMID 6363411, PMID 10722669, PMID 8982282; details: cited from earlier work
# [9] = system: Tg244440; assay type: cell-based, Toxoplasma gondii; details: 0.1 μM [3H]-permeant, 60 s, clones B11, F5 and G10
# Description: (§3) Figure 2 Uptake of radiolabelled nucleosides and nucleobases by in three clonal lines of T. brucei NB-KO procyclics, expressing Tg244440 in pHD1336. EV, empty vector control. Radiolabel concentration was 0.1 µM and uptake was measured over 60 s, in triplicate (average and SEM shown). Statistically significant differences between the control and the Tg244440-expressing cells were established using Student’s unpaired t-test. *, p < 0.05, **, p < 0.01, ***, p < 0.001.
# as §1
# [10] = system: T. gondii; details: cited from earlier work
# [11] = target: T1, Tg244440; assay type: cell-based; details: 0.1 μM [3H]-permeant, 60 s, clones B11, F5 and G10
# Description: as §3, §1
# [12] = system: TbNBT-KO cells transfected with the empty vector (EV); experiment: [3H]-guanine and [3H]-hypoxanthine uptake in TbNBT-KO cells transfected with the empty vector (EV); assay type: cell-based, Trypanosoma brucei; details: empty vector cells
# Description: as §1, §2
# [13] = system: O=c1[nH]cnc2nc[nH]c12; experiment: cells, lysate or membranes; details: other: 0.10 µM [3H]-hypoxanthine, 30 s, Michaelis-Menten; pH 7.3
# [14] = substrate: Nc1nc2nc[nH]c2c(=O)[nH]1; experiment: [3H]-guanine uptake and its inhibition in T. brucei TbNB-KO procyclics expressing Tg244440 (clone F5); assay type: cell-based, Toxoplasma gondii; details: other: 0.05 µM [3H]-guanine, 30 s, Michaelis-Menten; pH 7.3
# [15] = [Permeant] 25 μM (unlabelled guanine to saturate the transporter)
molecule,measurement,setting,value
O=c1[nH]cnc2c1ncn2[C@@H]1O[C@H](CO)[C@@H](O)[C@H]1O [Inosine],Km,[1],81 µM
same,Ki,[2]; Ki,4.05 ± 1.37 µM
same,ΔG^0 (Gibbs free energy of interaction),[2],-7.36 kcal/mol
same,δ(ΔG^0) relative to Hypoxanthine,[2],0.335 kcal/mol
same,Km,[3],0.77 µM
same,Km,[4]; for its substrates,> 100 µM
Nc1ncnc2c1ncn2[C@@H]1O[C@H](CO)[C@@H](O)[C@H]1O [Adenosine],Affinity for Tg244440 (in words),[2],Low affinity
same,Ki,[2]; Ki,68.2 ± 2.86 µM
same,ΔG^0 (Gibbs free energy of interaction),[2],-5.69 kcal/mol
same,Fold higher affinity than adenine,[2]; ratio of Ki values,6 fold
same,Fold lower affinity than inosine and guanosine,[2]; ratio of Ki values,about 20 fold
same,δ(ΔG^0) relative to Adenine,[2],-1.08 kcal/mol
same,δ(ΔG^0) relative to Adenine,[2]; listed as adenosine,1.08 kcal/mol
same,"Summation of the Gibbs free energy of the proposed interactions (binding model), Σ","[2]; substrate binding model, Figure 5, for adenosine base group only",-4.97 kcal/mol
same,Km,[5],0.2 to 0.4 µM
same,Km,[6],114 ± 37 µM
same,Km,[7],40 to 60 µM
same,Km,[3],0.49 µM
same,Km,[8],49 µM
same,Uptake of radiolabelled permeant in Tg244440 clones compared to empty vector,[9],No difference
same,Km,[4]; adenosine transport,120 µM
same,Km,[4]; for its substrates,> 100 µM
"Nc1ncnc2c1ncn2[C@@H]1O[C@H](CO)[C@@H](O)[C@@H]1O [Adenine arabinoside (Ara-A), Adenine arabinoside]",Affinity for Tg244440 (in words),[2],low affinity
same,ΔG^0 (Gibbs free energy of interaction),[2],-4.78 kcal/mol
same,Ki,[2]; read-out: Ki,310 ± 14 µM
same,δ(ΔG^0) relative to Adenosine,[2],0.896 kcal/mol
same,Ki,[3],2.9 µM
same,Activity against T. gondii (in words),[10],moderately active
Nc1nc2nc[nH]c2c(=O)[nH]1 [Guanine],"Rate of [3H]-guanine uptake, +Tg244440","[2]; [Permeant] 0.05 μM, over 60 s",0.037 ± 0.003 pmol(10^7 Cells)^−1s^−1
same,"Rate of [3H]-guanine uptake, +Tg244440","[2]; [Permeant] 0.05 μM, over 60 s, listed as guanine",0.037 pmol(10^7 Cells)^−1s^−1
same,"Rate of [3H]-guanine uptake, +Tg244440",[2]; [15],0.00092 ± 0.00067 pmol(10^7 Cells)^−1s^−1
same,Sum of δ(ΔG^0) for the 7-deaza and 9-deaza analogues,[2]; analogues of the named nucleobase,14.2 kJ/mol
same,ΔG^0 (Gibbs free energy of interaction),[2],-8.05 kcal/mol
same,Uptake of radiolabelled permeant in Tg244440 clones compared to empty vector,[11],highly significant increases
same,"Rate of [3H]-guanine uptake, EV","[12]; [Permeant] 0.05 μM, over 60 s",0.00059 pmol(10^7 Cells)^−1s^−1
same,"Rate of [3H]-guanine uptake, EV",[12]; [15],0.0015 ± 0.0002 pmol(10^7 Cells)^−1s^−1
Cc1cn([C@H]2C[C@H](O)[C@@H](CO)O2)c(=O)[nH]c1=O [thymidine],Uptake of radiolabelled permeant in Tg244440 clones compared to empty vector,[11],only slightly increased
Tg244440 (Toxoplasma gondii ME49),Km,[13],1 µM and 0.79 ± 0.06 µM
OC[C@H]1O[C@@H](n2ccc3c(O)ncnc32)C[C@@H]1O [7-deaza-2′-deoxyinosine],Ki,[2]; Ki,52.3 ± 8.4 µM
same,ΔG^0 (Gibbs free energy of interaction),[2],-5.83 kcal/mol
same,δ(ΔG^0) relative to 2′-Deoxyinosine,[2]; relative to 2′-Deoxyinosine,-0.478 kcal/mol
Sc1ncnc2nc[nH]c12 [6-Mercaptopurine],Ki,[2]; Ki,3.6 ± 0.8 µM
same,ΔG^0 (Gibbs free energy of interaction),[2],-7.43 kcal/mol
same,δ(ΔG^0) relative to Hypoxanthine,[2],0.287 kcal/mol
O=c1ccn([C@@H]2O[C@H](CO)[C@@H](O)[C@H]2O)c(=O)[nH]1 [uridine],Inhibition of [3H]-guanine transport by pyrimidines,[2],significant inhibition
O=c1[nH]ccc2nc[nH]c12 [3-deazahypoxanthine],Ki,[2]; Ki,59.5 ± 7.2 µM
same,ΔG^0 (Gibbs free energy of interaction),[2],-5.76 kcal/mol
same,δ(ΔG^0) relative to Hypoxanthine,[2],1.94 kcal/mol
Cc1c[nH]c(=O)[nH]c1=O [thymine],Inhibition of [3H]-guanine transport by pyrimidines,[2],significant inhibition
Nc1nc2c(ncn2[C@@H]2O[C@H](CO)[C@@H](O)[C@H]2O)c(=O)[nH]1 [Guanosine],Ki,[2]; Ki,3.3 ± 0.3 µM
same,ΔG^0 (Gibbs free energy of interaction),[2],-7.48 kcal/mol
same,δ(ΔG^0) relative to Guanine,[2]; relative to Guanine,0.574 kcal/mol
"COc1ncnc2c1c(Cl)cn2[C@@H]1O[C@H](CO)[C@@H](O)[C@H]1O [6-O-methyl,7-deaza,7-Cl-inosine]",ΔG^0 (Gibbs free energy of interaction),[2],-6 kcal/mol
same,Ki,[2]; read-out: Ki,39.6 ± 2.8 µM
same,δ(ΔG^0) relative to Inosine,[2],1.36 kcal/mol
"OC[C@@H]1CC[C@H](n2cnc3c(O)ncnc32)O1 [2′,3′-dideoxyinosine]",Ki,[2]; Ki,698 ± 52 µM
same,ΔG^0 (Gibbs free energy of interaction),[2],-4.3 kcal/mol
same,δ(ΔG^0) relative to Inosine,[2],3.06 kcal/mol
same,Activity against T. gondii (in words),[10],active in vitro and in vivo
C[C@H]1O[C@@H](n2cnc3c(O)ncnc32)[C@H](O)[C@@H]1O [5′-deoxyinosine],Ki,[2]; Ki,35.3 ± 3 µM
same,ΔG^0 (Gibbs free energy of interaction),[2],-6.07 kcal/mol
same,δ(ΔG^0) relative to Inosine,[2],1.29 kcal/mol
"Nc1ncnc2c1ccn2[C@@H]1O[C@H](CO)C[C@H]1O [3′-deoxy,7-deazaadenosine]",Ki,[2]; Ki,797 ± 116 µM
same,ΔG^0 (Gibbs free energy of interaction),[2],-4.23 kcal/mol
same,δ(ΔG^0) relative to Adenosine,[2],1.46 kcal/mol
Nc1nc2c(ncn2[C@H]2C[C@H](O)[C@@H](CO)O2)c(=O)[nH]1 [2′-deoxyguanosine],Ki,[2]; Ki,281 ± 6 µM
same,ΔG^0 (Gibbs free energy of interaction),[2],-4.85 kcal/mol
same,δ(ΔG^0) relative to Guanosine,[2],2.63 kcal/mol
same,δ(ΔG^0) relative to Guanosine,[2]; listed as 2′-Deoxyguanosine,2.63 kcal/mol
Tg244440 (Toxoplasma gondii ME49) (protein) MSTIEERAVAAQQMSKADDGKAPGMSRSDFVLAASFFLIAGVNSLIAWNVTLNLNPYFSTHCFSGNEWGNTLLAMFQLACMCIQIYLLKFGSGGAKKSYFFFAGIVNAITFTIFTPLVVYLPESAAVACMHICCFFLGIGSGVLQGGGFPYAASLPYNFCGFISTGQGLAAIIAFIWNTVFAFTLFDLDTRDGLVAMAWTSYGFAAVLSLVYFALFLVILKKPWAQGPFERQALEDVAAKEKAVQKAEAKKAEGDREAQYEQQDGNVFAVTAPTSIVDEESGVKVDGTEKRPARVFLRDAAPHLLNIGLTFFITLNNFPKIGPVGWNYNQQVNNHFIIMFGVFALGDVTGRFFPDLSQFSPKYFSWTMIPPKLVVPLCLLRSVFYVPFFLGYKLENTQVVNDFWFYVIIMLLFAFTQGWFCTLGFVYSMTSVRESERGVTGPLSVLCLSVGILAGLYLALAY,Km,[14],1 µM
